Experimental data reported in patent US20240423957A1, “TOPICAL ANTI-INFLAMMATORY AND ANALGESIC COMPOSITIONS AND METHODS OF USE” (INSIGNIA PHARMACEUTICALS, LLC, priority 2023, published 2024).
“Also recorded” adds a separate entry of the source.

What was measured:
[1] = tested on: Human osteoarthritic chondrocytes; test: Immunostaining of human osteoarthritic chondrocytes cultured 24 days on hyaluronic acid hydrogel (SOX9, Col2a1, ACAN); type: cell-based
Source text: The chondrocytes were layered on top of a hyaluronic acid hydrogel ([…]®, Sanofi-Aventis, United States) to promote a three-dimensional culture environment. Following 24 days, the cells were fixed with paraformaldehyde and immunostained for SOX9, Col2a1, and ACAN.

[2] = tested on: Human osteoarthritic chondrocytes; test: Real-time RT-PCR of Col2a1 mRNA in human osteoarthritic chondrocytes cultured 20 days; type: cell-based; details: delta-delta CT against GAPDH, actin, 18S rRNA
Protocol: The chondrocytes were layered on top of a hyaluronic acid hydrogel ([…]®, Sanofi-Aventis, United States) to promote a three-dimensional culture environment. Following 20 days, hyaluronidase was added to release the cells from the hydrogel, the cells were collected, and total RNA was isolated.

[3] = tested on: human chondrocyte spheroids; test: Morphology of human chondrocyte spheroids in hyaluronic acid hydrogel; type: cell-based
[4] = tested on: THP-1 macrophage-like cells; test: IL-1beta release (ELISA) from PMA-differentiated THP-1 macrophage-like cells; type: cell-based, human; details: 0.2 to 6 millimolar; activation with 100 ng/mL LPS 24 hours then 10 millimolar ATP 1 hour (FIG. 4)
Protocol: (§1) The human monocyte cell line THP-1 was differentiated into macrophage-like cells with PMA for 72 hours. […] Cells were then activated with 100 nanograms per milliliter LPS for 24 hours followed by an additional hour with 10 millimolar adenosine triphosphate (ATP). IL-1beta release was quantified by enzyme-linked immunosorbent assay (ELISA).

[5] = tested on: THP-1 cells; test: Viability of PMA-differentiated THP-1 cells (optical density at 490 nanometers); type: cell-based, human
Protocol: as §1
Cell viability was also assessed by optical density at 490 nanometers (FIGS. 5A & 5B).

[6] = cited from earlier work
[7] = high-density monolayers, ethanol vehicle, 0.1, 0.5 and 1 millimolar, 24 days

Q: For `CCCCCCCCCC(=O)O` [decanoic acid], which “ACAN immunostaining of chondrocyte spheroids” value ([1]; 1 millimolar) is on record?
A: The value was “strong ACAN immunostaining”.

Q: And the “SOX9 staining of spheroids” value ([1]; 1 millimolar, 24 days)?
A: The value was “stained strongly for SOX9”.

Q: What about the “spheroid development or condensation” value ([1]; 1 millimolar, 24 days) of the same compound?
A: Its value is “enhanced spheroid development or condensation”.

Q: What about the “concentration with peak Col2a1 staining” value ([1]; high-density monolayers) of the same compound?
A: The value was 0.5 millimolar.

Q: And the “nuclear staining for SOX9” value [1, 7]?
A: The value was “enhanced nuclear staining for SOX9 in a dose-dependent manner”.

Q: And the “punctate staining for ACAN” value [1, 7]?
A: Its value is “dose-dependent punctate staining for ACAN”.

Q: What about the “punctate staining for Col2a1” value [1, 7] of the same compound?
A: The value was “dose-dependent punctate staining for Col2a1”.

Q: What about the “concentration with strongest ACAN staining” value ([1]; low-density monolayers) of the same compound?
A: The value was 1 millimolar.

Q: And the “punctate immunostaining for Col2a1” value ([1]; low-density monolayers, 1 millimolar)?
A: The value was “strong punctate immunostaining for Col2a1”.

Q: What about the “increase in Col2a1 mRNA” value ([2]; 0.5 millimolar) of the same compound?
A: The value was 1 fold.

Q: What about the “increase in Col2a1 mRNA” value ([2]; 1 millimolar) of the same compound?
A: Its value is 7 fold.

Q: What about the spheroid morphology ([3]; after 4 days of culture (FIGS. 2A & 2B)) of the same compound?
A: The spheroid morphology was “promoted interconnected networks of spheroids; also recorded: generated interconnected networks that suspended the spheroids”.

Q: And the spheroid morphology ([3]; after 20 days of culture (FIGS. 3A & 3B))?
A: The spheroid morphology was “large spheroid development or condensation”.

Q: And the IL-1beta release [4]?
A: Its IL-1beta release is “dose-dependent inhibition of IL-1beta release; also recorded: dose-dependent inhibition of IL-1beta concentrations”.

Q: What about the cell viability ([5]; 6 millimolar (FIGS. 5A & 5B)) of the same compound?
A: The cell viability was “unfavorable effect on viability; also recorded: significant decrease in viability”.

Q: What about the cell viability ([5]; concentrations below 6 millimolar (from 0.19 millimolar), relative to vehicle controls) of the same compound?
A: Its cell viability is “no lower concentration of decanoic acid reduced cell viability”.

Q: And the pKa [6]?
A: Its pKa is “about 4.9”.
